{"source": "patent US7544664B2", "about": "“Sequences facilitating penetration of a substance of interest” (priority 2003, dated 2009)", "key": {"[1]": {"conditions": "literature (Tabosa Do Egito et al. 1996); cited from earlier work"}, "[2]": {"test_system": "Candida parapsilosis (ATCC 22019)", "assay": "In vitro antifungal activity MIC80 (NCCLS M27A)", "conditions": "MIC80, 48 hours, 37° C.; DPV15-AmB and AmB in μg/ml of AmB active product"}}, "data": [{"molecule": "C[C@@H]1[C@H](O)[C@@H](C)/C=C/C=C/C=C/C=C/C=C/C=C/C=C/[C@H](O[C@@H]2O[C@H](C)[C@@H](O)[C@H](N)[C@@H]2O)C[C@@H]2O[C@](O)(C[C@@H](O)C[C@@H](O)[C@H](O)CC[C@@H](O)C[C@@H](O)CC(=O)O[C@H]1C)C[C@H](O)[C@H]2C(=O)O", "note": "[AmB, Amphotericin B]", "values": [{"measurement": "MTD", "setting": "[1]", "value": 1, "unit": "mg/kg"}, {"measurement": "MIC", "setting": "[2]", "value": 0.25, "unit": "µg/mL"}]}]}
